For orientation: IC50 means the concentration that inhibits the measured activity by half. By inhibition is commonly meant the percentage by which the read-out fell short of the control.

For 29 compounds, IC50 and inhibition results are on record in patent US7135466B2 (Kirin Beer Kabushiki Kaisha, priority 1999, dated 2006).

In one assay the target is T1, PDGF-Ra (Homo sapiens, UniProt P16234).
T1 construct: host or cells: G-292 human osteosarcoma cells
Kind of assay: Inhibitory activity against PDGF-Ra phosphorylation by PDGF-AA stimulation using G292. Type of assay: cell-based. As to conditions: for IC50: > means inhibition at indicated concentration not more than 50%, < and << not less than 50%, read-out: PDGF (E) IC50; for inhibition at 0.1 µM: G292, figure within parentheses in >100( ), at 100 nM, read-out: PDGF (E) inhibition (%) at 100 nM. The method in brief:
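G-292 human osteosarcoma cells, serum-starved overnight in 0.1% FBS, were pretreated with compound in DMSO for 1 hr at 37 °C, then stimulated with 50 ng/ml PDGF-AA for 5 min. Lysates were captured on anti-phosphotyrosine PY-20 plates and probed with anti-PDGF-Ra plus HRP secondary; absorbance read at 450 nm.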

The target of another assay is T2, c-kit (Homo sapiens, UniProt P10721).
T2 construct: MO7e (human megakaryocytic leukemia cell line) which had been arrested for 20 hr; endogenous in cells; host or cells: MO7e human megakaryocytic leukemia cell line
T2 sequence (P10721 26-976): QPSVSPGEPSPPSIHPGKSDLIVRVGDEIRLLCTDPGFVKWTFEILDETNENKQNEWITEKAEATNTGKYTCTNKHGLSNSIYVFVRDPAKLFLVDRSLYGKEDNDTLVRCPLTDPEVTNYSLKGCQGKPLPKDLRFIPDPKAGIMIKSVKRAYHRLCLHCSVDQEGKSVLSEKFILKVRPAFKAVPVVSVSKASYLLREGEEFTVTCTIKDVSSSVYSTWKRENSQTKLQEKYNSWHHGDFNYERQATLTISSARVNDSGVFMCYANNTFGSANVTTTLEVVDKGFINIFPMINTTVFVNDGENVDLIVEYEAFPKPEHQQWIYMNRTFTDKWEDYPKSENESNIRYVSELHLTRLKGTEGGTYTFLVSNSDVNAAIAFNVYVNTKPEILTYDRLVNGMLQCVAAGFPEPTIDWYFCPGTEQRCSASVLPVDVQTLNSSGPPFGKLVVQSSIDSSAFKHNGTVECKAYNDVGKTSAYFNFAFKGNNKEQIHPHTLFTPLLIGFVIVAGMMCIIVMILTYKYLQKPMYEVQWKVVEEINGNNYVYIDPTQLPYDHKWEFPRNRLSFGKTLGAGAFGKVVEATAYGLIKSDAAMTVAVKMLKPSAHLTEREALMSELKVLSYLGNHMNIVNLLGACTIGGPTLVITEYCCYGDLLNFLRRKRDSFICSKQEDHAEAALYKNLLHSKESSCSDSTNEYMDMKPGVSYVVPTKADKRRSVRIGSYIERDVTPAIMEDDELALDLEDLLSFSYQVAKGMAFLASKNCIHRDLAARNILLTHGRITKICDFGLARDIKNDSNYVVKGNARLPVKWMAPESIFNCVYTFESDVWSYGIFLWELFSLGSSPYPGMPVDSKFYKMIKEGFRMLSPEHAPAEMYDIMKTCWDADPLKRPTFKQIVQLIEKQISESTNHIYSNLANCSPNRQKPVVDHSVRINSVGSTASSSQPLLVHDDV
In words: Inhibitory activity against c-kit autophosphorylation (MO7e cells, h-SCF). Type of assay: cell-based. To be noted: for IC50: MO7e cells, 50 ng/ml h-SCF, read-out: c-kit IC50; for inhibition at 1 µM: Mo7e, figure within parentheses in −( ) or >1000( ), at 1000 nM. Put shortly: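 First, human megakaryocytic leukemia MO7e cells arrested 20 hr receive compound for one hour. Second, SCF stimulation (50 ng/ml) runs 5 min, after which cells are solubilized. Third, tyrosine-phosphorylated c-kit in the lysate is quantified by sandwich ELISA with absorbance at 450 nm.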

T1 sequence (P16234 24-1089): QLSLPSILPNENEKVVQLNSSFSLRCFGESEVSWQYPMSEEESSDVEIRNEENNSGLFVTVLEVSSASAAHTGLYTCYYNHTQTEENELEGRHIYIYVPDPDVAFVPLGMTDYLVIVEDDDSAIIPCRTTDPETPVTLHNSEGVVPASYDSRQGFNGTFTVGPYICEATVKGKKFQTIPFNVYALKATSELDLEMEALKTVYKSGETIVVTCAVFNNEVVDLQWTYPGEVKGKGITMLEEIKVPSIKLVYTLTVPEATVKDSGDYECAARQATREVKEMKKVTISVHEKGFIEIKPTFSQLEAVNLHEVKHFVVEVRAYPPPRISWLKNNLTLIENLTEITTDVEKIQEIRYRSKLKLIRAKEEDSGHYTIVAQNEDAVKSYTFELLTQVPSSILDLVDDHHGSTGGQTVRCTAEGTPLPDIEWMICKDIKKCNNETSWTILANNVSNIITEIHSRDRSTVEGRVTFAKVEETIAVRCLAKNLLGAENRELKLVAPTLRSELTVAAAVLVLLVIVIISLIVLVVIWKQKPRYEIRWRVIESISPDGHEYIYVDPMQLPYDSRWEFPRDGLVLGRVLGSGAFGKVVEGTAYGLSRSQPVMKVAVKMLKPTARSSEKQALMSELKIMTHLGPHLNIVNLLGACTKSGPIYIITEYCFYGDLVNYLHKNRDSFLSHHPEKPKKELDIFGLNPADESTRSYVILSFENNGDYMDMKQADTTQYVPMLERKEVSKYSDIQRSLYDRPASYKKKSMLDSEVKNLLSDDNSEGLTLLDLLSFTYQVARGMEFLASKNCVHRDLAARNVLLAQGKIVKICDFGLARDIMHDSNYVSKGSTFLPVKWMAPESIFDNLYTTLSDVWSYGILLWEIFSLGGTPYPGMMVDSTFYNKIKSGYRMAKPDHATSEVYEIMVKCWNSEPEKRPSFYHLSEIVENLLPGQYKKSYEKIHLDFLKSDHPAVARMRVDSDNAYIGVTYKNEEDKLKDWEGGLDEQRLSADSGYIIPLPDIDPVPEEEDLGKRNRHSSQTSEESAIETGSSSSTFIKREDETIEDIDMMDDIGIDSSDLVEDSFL

As to `CCN(CC)CCOC(=O)Nc1ccc(Oc2ncnc3cc(OC)c(OC)cc23)cc1` [Example 436, 2-(Diethylamino)ethyl N-{4-[(6,7-dimethoxy-4-quinazolinyl)oxy]phenyl}carbamate], on PDGF-Ra, the IC50 was greater than 100 nM and the inhibition at 0.1 µM stood at 46%. Besides, on c-kit, the half-inhibitory concentration (IC50) stood at 878 nM.
On to `CCCC(CCN1CCOCC1)OC(=O)Nc1ccc(Oc2ccnc3cc(OC)c(OC)cc23)cc1` (stereo not drawn) [Example 437, 1-(2-Morpholinoethyl)butyl N-{4-[(6,7-dimethoxy-4-quinolyl)oxy]phenyl}carbamate], for which the IC50 at PDGF-Ra was 48 nM; at c-kit it was 250 nM.
Regarding `CCCC(CCN1CCOCC1)OC(=O)Nc1cc(C)c(Oc2ccnc3cc(OC)c(OC)cc23)cc1C` (stereo not drawn) [Example 438, 1-(2-Morpholinoethyl)butyl N-{4-[(6,7-dimethoxy-4-quinolyl)oxy]-2,5-dimethylphenyl}carbamate], on PDGF-Ra, the IC50 is greater than 100 nM and the inhibition at 0.1 µM turned out to be 41%. For the same compound, the half-maximal inhibitory concentration (IC50) on c-kit is 414 nM.
In the case of `CCCC(CCN1CCOCC1)OC(=O)Nc1ccc(Oc2ccnc3cc(OC)c(OC)cc23)c(C)c1C` (stereo not drawn) [Example 439, 1-(2-Morpholinoethyl)butyl N-{4-[(6,7-dimethoxy-4-quinolyl)oxy]-2,3-dimethylphenyl}carbamate], the half-inhibitory concentration (IC50) was 52 nM at PDGF-Ra and 224 nM on c-kit.
The like results for `CCCC(CCN1CCOCC1)OC(=O)Nc1ccc(Oc2ncnc3cc(OC)c(OC)cc23)cc1` (stereo not drawn) [Example 440] were, in that order, 47 nM and 351 nM.
On to `CCCC(CCN(CC)CC)OC(=O)Nc1cc(C)c(Oc2ccnc3cc(OC)c(OC)cc23)cc1C` (stereo not drawn) [Example 442, 1-[2-(Diethylamino)ethyl]butyl N-{4-[(6,7-dimethoxy-4-quinolyl)oxy]-2,5-dimethylphenyl}carbamate], for which, on PDGF-Ra, the IC50 was greater than 100 nM and the inhibition at 0.1 µM was 32%. Further, the inhibition at 1 µM at c-kit was 28%.
Turning to `CCCC(CCN(CC)CC)OC(=O)Nc1ccc(Oc2ccnc3cc(OC)c(OC)cc23)c(C)c1C` (stereo not drawn) [Example 443, 1-[2-(Diethylamino)ethyl]butyl N-{4-[(6,7-dimethoxy-4-quinolyl)oxy]-2,3-dimethylphenyl}carbamate], the IC50 on PDGF-Ra is 15 nM; on c-kit it was 627 nM.
As to `CCCC(CCN(CC)CC)OC(=O)Nc1ccc(Oc2ncnc3cc(OC)c(OC)cc23)cc1` (stereo not drawn) [Example 444, 1-[2-(Diethylamino)ethyl]butyl N-{4-[(6,7-dimethoxy-4-quinazolinyl)oxy]phenyl}carbamate], the IC50 on PDGF-Ra came to 21 nM; on c-kit it was 972 nM.
On to `CCCC(CCN1CCCCC1)OC(=O)Nc1ccc(Oc2ccnc3cc(OC)c(OC)cc23)cc1` (stereo not drawn) [Example 445, 1-(2-Piperidinoethyl)butyl N-{4-[(6,7-dimethoxy-4-quinolyl)oxy]phenyl}carbamate], for which, at PDGF-Ra, the IC50 was greater than 100 nM and the inhibition at 0.1 µM was 11%. Besides, the half-maximal inhibitory concentration (IC50) on c-kit was found to be 941 nM.
For `CCCC(CCN1CCCCC1)OC(=O)Nc1cc(C)c(Oc2ccnc3cc(OC)c(OC)cc23)cc1C` (stereo not drawn) [Example 446, 1-(2-Piperidinoethyl)butyl N-{4-[(6,7-dimethoxy-4-quinolyl)oxy]-2,5-dimethylphenyl}carbamate], at PDGF-Ra, the IC50 was greater than 100 nM and the inhibition at 0.1 µM was found to be 39%. In addition, the inhibition at 1 µM at c-kit amounted to 40%.
Turning to `CCCC(CCN1CCCCC1)OC(=O)Nc1ccc(Oc2ccnc3cc(OC)c(OC)cc23)c(C)c1C` (stereo not drawn) [Example 447], on PDGF-Ra, the half-maximal inhibitory concentration (IC50) is greater than 100 nM and the inhibition at 0.1 µM came out at 11%. The IC50 on c-kit was 553 nM.
For `CCCC(CCN1CCCCC1)OC(=O)Nc1ccc(Oc2ncnc3cc(OC)c(OC)cc23)cc1` (stereo not drawn) [Example 448, 1-(2-Piperidinoethyl)butyl N-{4-[(6,7-dimethoxy-4-quinazolinyl)oxy]phenyl}carbamate], at PDGF-Ra, the concentration for half-maximal inhibition (IC50) is greater than 100 nM and the inhibition at 0.1 µM was found to be 39%. Moreover, at c-kit, the inhibition at 1 µM is 25%.
Turning to `CCCC(CCN1CCN(C)CC1)OC(=O)Nc1ccc(Oc2ccnc3cc(OC)c(OC)cc23)cc1` (stereo not drawn) [Example 449, 1-[2-(4-Methylpiperazino)ethyl]butyl N-{4-[(6,7-dimethoxy-4-quinolyl)oxy]phenyl}carbamate], on PDGF-Ra, the concentration for half-maximal inhibition (IC50) is greater than 100 nM and the inhibition at 0.1 µM stood at 26%. In addition, the IC50 at c-kit stood at 747 nM.
With `CCCC(CCN1CCN(C)CC1)OC(=O)Nc1cc(C)c(Oc2ccnc3cc(OC)c(OC)cc23)cc1C` (stereo not drawn) [Example 450, 1-[2-(4-Methylpiperazino)ethyl]butyl N-{4-[(6,7-dimethoxy-4-quinolyl)oxy]-2,5-dimethylphenyl}carbamate], at PDGF-Ra, the IC50 is greater than 100 nM and the inhibition at 0.1 µM amounted to 13%. The inhibition at 1 µM at c-kit was 46%.
On to `CCCC(CCN1CCN(C)CC1)OC(=O)Nc1ccc(Oc2ccnc3cc(OC)c(OC)cc23)c(C)c1C` (stereo not drawn) [Example 451, 1-[2-(4-Methylpiperazino)ethyl]butyl N-{4-[(6,7-dimethoxy-4-quinolyl)oxy]-2,3-dimethylphenyl}carbamate], for which, on PDGF-Ra, the IC50 is greater than 100 nM and the inhibition at 0.1 µM was determined as 25%. Further, the half-maximal inhibitory concentration (IC50) on c-kit worked out at 613 nM.
For `CCCC(CCN1CCN(C)CC1)OC(=O)Nc1ccc(Oc2ncnc3cc(OC)c(OC)cc23)cc1` (stereo not drawn) [Example 452, 1-[2-(4-Methylpiperazino)ethyl]butyl N-{4-[(6,7-dimethoxy-4-quinazolinyl)oxy]phenyl}carbamate], at PDGF-Ra, the IC50 is greater than 100 nM and the inhibition at 0.1 µM came to 31%. The inhibition at 1 µM on c-kit came out at 37%.
Regarding `COc1cc2nccc(Oc3ccc(NC(=O)Oc4cccc(C#N)c4)c(C)c3C)c2cc1OC` [Example 459, 3-Cyanophenyl N-{4-[(6,7-dimethoxy-4-quinolyl)oxy]-2,3-dimethylphenyl}carbamate], the results for the 50% inhibitory concentration (IC50) at PDGF-Ra and at c-kit were 47 nM and less than 30 nM, respectively.
As for `COc1cc2nccc(Oc3ccc(NC(=O)OC4CCCN(C)C4)cc3)c2cc1OC` (stereo not drawn) [Example 462, 1-Methyl-3-piperidyl N-{4-[(6,7-dimethoxy-4-quinolyl)oxy]phenyl}carbamate], the IC50 at PDGF-Ra stood at 52 nM; on c-kit, 575 nM.
For the compound `COc1cc2nccc(Oc3cc(C)c(NC(=O)OC4CCCN(C)C4)cc3C)c2cc1OC` (stereo not drawn) [Example 463, 1-Methyl-3-piperidyl N-{4-[(6,7-dimethoxy-4-quinolyl)oxy]-2,5-dimethylphenyl}carbamate], the IC50 at PDGF-Ra turned out to be 91 nM; on c-kit, 432 nM.
With `COc1cc2nccc(Oc3ccc(NC(=O)OC4CCCN(C)C4)c(C)c3C)c2cc1OC` (stereo not drawn) [Example 464, 1-Methyl-3-piperidyl N-{4-[(6,7-dimethoxy-4-quinolyl)oxy]-2,3-dimethylphenyl}carbamate], the figures for the IC50 at PDGF-Ra and on c-kit were 55 nM and 201 nM, respectively.
As for `COc1cc2ncnc(Oc3ccc(NC(=O)OC4CCN(C)CC4)cc3)c2cc1OC` [Example 469, 1-Methyl-4-piperidyl N-{4-[(6,7-dimethoxy-4-quinazolinyl)oxy]phenyl}carbamate], on PDGF-Ra, the half-inhibitory concentration (IC50) is greater than 100 nM and the inhibition at 0.1 µM worked out at 0%. The inhibition at 1 µM at c-kit came to 28%.
On to `COc1cc2nccc(Oc3ccc(NC(=O)OC4CCOCC4)cc3)c2cc1OC` [Example 470, Tetrahydro-2H-4-pyranyl N-{4-[(6,7-dimethoxy-4-quinolyl)oxy]phenyl}carbamate], for which the half-maximal inhibitory concentration (IC50) on PDGF-Ra stood at 26 nM; at c-kit, 128 nM.
`COc1cc2nccc(Oc3cc(C)c(NC(=O)OC4CCOCC4)cc3C)c2cc1OC` [Example 471, Tetrahydro-2H-4-pyranyl N-{4-[(6,7-dimethoxy-4-quinolyl)oxy]-2,5-dimethylphenyl}carbamate]: on PDGF-Ra, the IC50 is greater than 100 nM and the inhibition at 0.1 µM worked out at 28%. For the same compound, the half-maximal inhibitory concentration (IC50) on c-kit was 237 nM.
Turning to `COc1cc2nccc(Oc3ccc(NC(=O)OC4CCOCC4)c(C)c3C)c2cc1OC` [Example 472, Tetrahydro-2H-4-pyranyl N-{4-[(6,7-dimethoxy-4-quinolyl)oxy]-2,3-dimethylphenyl}carbamate], the figures for the concentration for half-maximal inhibition (IC50) on PDGF-Ra and at c-kit were 31 nM and 67 nM, respectively.
Take `COc1cc2ncnc(Oc3ccc(NC(=O)OC4CCOCC4)cc3)c2cc1OC` [Example 473, Tetrahydro-2H-4-pyranyl N-{4-[(6,7-dimethoxy-4-quinazolinyl)oxy]phenyl}carbamate]: on PDGF-Ra, the IC50 was greater than 100 nM and the inhibition at 0.1 µM turned out to be 30%. The 50% inhibitory concentration (IC50) on c-kit was 259 nM.
On to `COc1cc2ncnc(Oc3ccc(N(C)C(=O)OC4CCCCC4)c(Cl)c3)c2cc1OC` [Example 474, Cyclohexyl N-{2-chloro-4-[(6,7-dimethoxy-4-quinazolinyl)oxy]phenyl}-N-methylcarbamate], for which the IC50 on PDGF-Ra turned out to be 46 nM. Moreover, on c-kit, the inhibition at 1 µM is 6%.
For the compound `CCN(C(=O)OC1CCCCC1)c1ccc(Oc2ncnc3cc(OC)c(OC)cc23)cc1Cl` [Example 475, Cyclohexyl N-{2-chloro-4-[(6,7-dimethoxy-4-quinazolinyl)oxy]phenyl}-N-ethylcarbamate], on PDGF-Ra, the concentration for half-maximal inhibition (IC50) is 15 nM. The inhibition at 1 µM on c-kit amounted to 24%.
On to `COc1cc2ncnc(Oc3ccc(N(C)C(=O)OC4CCCCC4)cc3)c2cc1OC` [Example 476, Cyclohexyl N-{4-[(6,7-dimethoxy-4-quinazolinyl)oxy]phenyl}-N-methylcarbamate], for which the 50% inhibitory concentration (IC50) on PDGF-Ra is less than 10 nM; on c-kit, 172 nM.
Take `CCN(C(=O)OC1CCCCC1)c1ccc(Oc2ncnc3cc(OC)c(OC)cc23)cc1` [Example 477, Cyclohexyl N-{4-[(6,7-dimethoxy-4-quinazolinyl)oxy]phenyl}-N-ethylcarbamate]: the IC50 on PDGF-Ra came to 59 nM; on c-kit it was 248 nM.
